Test results reported in US20260345582A1, “PRODRUG FOR ANTI-AGING RELATED DISEASES AND USE METHOD THEREOF” (Beijing SunCell Bio-Medical Co., Ltd., priority 2022, published 2026).

Experiments:
[1] = plasma metabolic stability, rat; assay type: in vitro ADME; settings: 120 min
Experimental: (§1) Plasma Metabolic Stability
(§2) Termination of the reaction was accomplished by the addition of 3× volume of acetonitrile and centrifugation at 16000 g for 20 minutes. The supernatant was taken for a LC-MS/MS analysis. The chromatographic column: Waters XSelect HSS T3; the flow rate: 500 μL/min; the eluent: A, water (0.1% formic acid); B, acetonitrile (0.1% formic acid); the gradient elution: 0-1.5 min, 5% B, 1.5-9 min, 5%-80% B, 9-12 min, 80%-100% B, 12-14 min, 100% B, 14-14.3 min, 100%-5% B, 14.3-15 min, 5% B.

[2] = system: mouse model of oxygen-induced retinopathy; assay: oxygen-induced retinopathy, retinal microvessel staining analysis; assay type: in vivo, C57BL6/J mice; settings: single intravitreal injection
Experimental: A. Modelling of a mouse model of oxygen-induced retinopathy, and the schematic diagram of treatment. C57BL6/J mice were cultured in 75% hyperoxia for 5 consecutive days starting from postnatal day 7, and treated by a single intravitreal administration of the drug on postnatal day 12, and then transferred to normal air atmosphere until day 17 for retinal sampling and analysis. P0, P7, P12, and P17 in the panel represent mice on postnatal days 0, 7, 12, and 17, respectively.
B. Representative diagram of the reduction of pathological avascular areas in the mouse retina after the treatment by intravitreal injection of A13bGa1. Mouse retinal microvessels were labelled by IB4 staining for the central avascular area analysis, wherein the green fluorescence represents the IB4-labelled microvascular areas, and the avascular areas are circled with white markers in the panel.
C. Statistical results of the retina pathological avascular areas after treatment of different groups of mice. […] The statistics in the panel are the quantitative results of the ischemic areas in the retinas of each sample compared with that of the VEH control group after the areas were taken as the means, and the error bar is a standard deviation. […]

[3] = plasma metabolic stability, human; assay type: in vitro ADME; settings: 120 min
Experimental: as §1, §2

[4] = plasma metabolic stability, monkey; assay type: in vitro ADME; settings: 120 min
Experimental: as §1, §2

[5] = 10 μM prodrug, read-out: The peak area after normalisation at minute 120, oxidative dehydrogenation metabolite
[6] = 10 μM, read-out: The peak area after normalisation at minute 120, initial drug

## Cc1c(-c2ccc(N3CCc4cccc(C(=O)Nc5nc6ccccc6s5)c4C3)nc2C(=O)OCc2ccc(O[C@@H]3O[C@H](CO)[C@H](O)[C@H](O)[C@H]3O)c([N+](=O)[O-])c2)cnn1CC12CC3CC(CC(C3)C1)C2 [Compound A13bGa1]
[1]; [5]
  metabolised at 2 h, 10 µM: 0.13%
[1]; [6]
  remaining at 2 h, 10 µM: 99.9%
[2]
  retinal oxygen-induced microangiopathy: effectively improve the retinal oxygen-induced microangiopathy
[2]; 50 ng and 100 ng, FIGS. 6D and 6E
  area of the abnormal neovascular area in the retinas: significantly reduced
[3]; [5]
  metabolised at 2 h, 10 µM: 0.07%
[3]; [6]
  remaining at 2 h, 10 µM: 99.9%
[4]; [5]
  metabolised at 2 h, 10 µM: 0.04%
[4]; [6]
  remaining at 2 h, 10 µM: 100%
